Assays:
[1] = Partition coefficient (logP); assay type: physicochemical; settings: octanol/water
MT4 = assay: Cytotoxicity against MT-4 (human leukemia) cells.; assay type: functional
Homo sapiens = species on record: Homo sapiens; assay: Time required for 50%hydrolysis of prodrug to AZT in normal human serum was determined; assay type: ADME, organism-based
[2] = Selectivity index (CC50/EC50).; assay type: functional
[3] = test system: Human immunodeficiency virus 1; assay: Inhibition of HIV-1 (BRU) cytopathicity in MT-4 (human leukemia).; assay type: functional, organism-based
[4] = (§1) Cytotoxicity against human peripheral blood mononuclear cells.; assay type: functional
[5] = test system: Human immunodeficiency virus 1; assay: Inhibition of HIV-1 (IIIB) cytopathicity in human peripheral blood mononuclear cells.; assay type: functional, organism-based
[6] = test system: Human immunodeficiency virus 1; assay: Inhibition of HIV-1 (BaL) cytopathicity in human peripheral blood mononuclear cells.; assay type: functional, organism-based
[7] = as §1; assay type: functional; remark: listed apart in the source

Cc1cn(C2CC(N=[N+]=[N-])C(COC(=O)NCCCN)O2)c(=O)[nH]c1=O (stereo not given)
logP ([1]; read-out: logP): -1.19
CC50 (MT4): > 50000 nM
T1/2 (Homo sapiens): > 2880 min
SI [2]: > 5000
EC50 [3]: 10 nM

Cc1cn(C2CC(N=[N+]=[N-])C(COC(=O)NCCCO)O2)c(=O)[nH]c1=O (stereo not given)
logP ([1]; read-out: logP): -1.24
CC50 (MT4): > 50000 nM
T1/2 (Homo sapiens): > 2880 min
SI [2]: > 500
EC50 [3]: 100 nM

Cc1cn(C2CC(N=[N+]=[N-])C(COC(=O)OCCCO)O2)c(=O)[nH]c1=O (stereo not given)
logP [1]: -0.98
CC50 (MT4): > 50000 nM
T1/2 (Homo sapiens): 10 min
SI [2]: > 5000
EC50 [3]: 10 nM

Cc1cn(C2CC(N=[N+]=[N-])C(COC(=O)OCCCCO)O2)c(=O)[nH]c1=O (stereo not given)
CC50 [4]: 24000 nM
logP [1]: -0.68
EC50 [5]: 0.78 nM
CC50 (MT4): > 50000 nM
T1/2 (Homo sapiens): 30 min
EC50 [6]: 0.78 nM
CC50 [7]: 29000 nM
EC50 [3]: 0.5 nM

Cc1cn(C2CC(N=[N+]=[N-])C(COC(=O)CCCN)O2)c(=O)[nH]c1=O (stereo not given)
logP ([1]; read-out: logP): -0.9
CC50 (MT4): > 50000 nM
T1/2 (Homo sapiens): 26 min
SI [2]: > 2500
EC50 [3]: 20 nM

Cc1cn(C2CC(N=[N+]=[N-])C(COC(=O)OCCCCCCO)O2)c(=O)[nH]c1=O (stereo not given)
logP ([1]; read-out: logP): 0.08
CC50 (MT4): > 50000 nM
T1/2 (Homo sapiens): 7 min
SI [2]: > 5000
EC50 [3]: 10 nM

Cc1cn(C2CC(N=[N+]=[N-])C(COC(=O)NCCCC(=O)OC(C)(C)C)O2)c(=O)[nH]c1=O (stereo not given)
logP ([1]; read-out: logP): 0.88
CC50 (MT4): > 50000 nM
T1/2 (Homo sapiens): > 2880 min
SI [2]: > 5000
EC50 [3]: 10 nM

Cc1cn(C2CC(N=[N+]=[N-])C(COC(=O)CCCO)O2)c(=O)[nH]c1=O (stereo not given)
logP ([1]; read-out: logP): -0.95

Cc1cn(C2CC(N=[N+]=[N-])C(COC(=O)OCCCCCCCCO)O2)c(=O)[nH]c1=O (stereo not given)
logP ([1]; read-out: logP): 1.14
CC50 (MT4): > 50000 nM
T1/2 (Homo sapiens): 2 min
SI [2]: > 20000
EC50 [3]: 2.5 nM

CCCCOC(=O)OCC1OC(n2cc(C)c(=O)[nH]c2=O)CC1N=[N+]=[N-] (stereo not given)
logP ([1]; read-out: logP): 1.02
CC50 (MT4): > 50000 nM
T1/2 (Homo sapiens): 9 min
SI [2]: > 6250
EC50 [3]: 8 nM

Cc1cn(C2CC(N=[N+]=[N-])C(COC(=O)OCCO)O2)c(=O)[nH]c1=O (stereo not given)
logP [1]: -1.2
CC50 (MT4): > 50000 nM
T1/2 (Homo sapiens): < 1 min
SI [2]: > 5000
EC50 [3]: 10 nM

Cc1cn(C2CC(N=[N+]=[N-])C(COC(=O)OCCCCCO)O2)c(=O)[nH]c1=O (stereo not given)
logP ([1]; read-out: logP): -0.45
CC50 (MT4): > 50000 nM
T1/2 (Homo sapiens): 16 min
SI [2]: > 5000
EC50 [3]: 10 nM

Cc1cn(C2CC(N=[N+]=[N-])C(COC(=O)CCCC(=O)O)O2)c(=O)[nH]c1=O (stereo not given)
logP [1]: -0.52
CC50 (MT4): > 50000 nM
T1/2 (Homo sapiens): 1800 min
SI [2]: > 7140
EC50 [3]: 7 nM

Cc1cn([C@H]2C[C@H](N=[N+]=[N-])[C@@H](CO)O2)c(=O)[nH]c1=O [ZIDOVUDINE]
CC50 [4]: 11000 nM
EC50 [5]: 7.5 nM
CC50 (MT4): > 100000 nM
EC50 [6]: 11 nM
CC50 [7]: 8000 nM
EC50 [3]: 25 nM

Cc1cn(C2CC(N=[N+]=[N-])C(COC(=O)CCCC(=O)OC(C)(C)C)O2)c(=O)[nH]c1=O (stereo not given)
logP ([1]; read-out: logP): 1.17
CC50 (MT4): > 50000 nM
T1/2 (Homo sapiens): 33 min
SI [2]: > 10000
EC50 [3]: 5 nM

Cc1cn(C2CC(N=[N+]=[N-])C(COC(=O)NCCCC(=O)O)O2)c(=O)[nH]c1=O (stereo not given)
logP ([1]; read-out: logP): -0.81
CC50 (MT4): > 50000 nM
T1/2 (Homo sapiens): > 2880 min
SI [2]: > 500
EC50 [3]: 100 nM

Cc1cn(C2CC(N=[N+]=[N-])C(COC(=O)OCCCC(=O)O)O2)c(=O)[nH]c1=O (stereo not given)
logP ([1]; read-out: logP): -0.55
CC50 (MT4): > 50000 nM
T1/2 (Homo sapiens): 780 min
SI [2]: > 10000
EC50 [3]: 5 nM

Cc1cn(C2CC(N=[N+]=[N-])C(COC(=O)OCCCN)O2)c(=O)[nH]c1=O (stereo not given)
logP ([1]; read-out: logP): -0.93
CC50 (MT4): > 50000 nM
T1/2 (Homo sapiens): 8 min
SI [2]: > 2500
EC50 [3]: 20 nM

Cc1cn(C2CC(N=[N+]=[N-])C(COC(=O)OCCCC(=O)OC(C)(C)C)O2)c(=O)[nH]c1=O (stereo not given)
logP ([1]; read-out: logP): 1.14
CC50 (MT4): > 50000 nM
T1/2 (Homo sapiens): 16 min
SI [2]: > 10000
EC50 [3]: 5 nM

Source: ChEMBL document CHEMBL1134362, “New 3'-azido-3'-deoxythymidin-5'-yl O-(omega-hydroxyalkyl) carbonate prodrugs: synthesis and anti-HIV evaluation” (J Med Chem, 2001)
